Results: patent publication US10131675B2 (Genentech, Inc., priority 2015, dated 2018)

molecular target: DLK (Homo sapiens (Human), UniProt Q12852); test: DLK TR-FRET Inhibition Assay; format: biochemical; settings: N-terminally GST-tagged DLK (catalytic domain amino acid 1-520), MKK4 K131M substrate, 30 μM ATP; read-out: DLK HTRF Ki
Method: DLK kinase reactions (20 μL) containing 5 nM N-terminally GST-tagged DLK (catalytic domain amino acid 1-520) (Carna Bioscience), 40 nM N-terminally HIS tagged MKK4 K131M substrate, and 30 μM ATP in kinase reaction buffer (50 mM HEPES, pH 7.5, 0.01% Triton X-100, 0.01% Bovine γ-Globulins, 2 mM DTT, 10 mM MgCl2 and 1 mM EGTA), and testing compound 1:3 serial diluted starting at 20 uM were incubated at ambient temperature for 60 minutes in 384 well OptiPlate (Perkin Elmer). To quench kinase reactions and detect phosphorylated MKK4, 15 μL of TR-FRET antibody mixture containing 2 nM anti-phosphorylated MKK4 labeled with Europium cryptate (Cisbio) and 23 nM anti-HIS labeled with D2 (Cisbio) in detection buffer (25 mM Tris pH 7.5, 100 mM NaCl, 100 mM EDTA, 0.01% Tween-20, and 200 mM KF) was added to the reaction mixture. The detection mixture was incubated for 3 hours at ambient temperature and the TR-FRET was detected with an EnVision multilabel plate reader (Perkin-Elmer) using the LANCE/DELFIA Dual Enh label from Perkin-Elmer (excitation filter: UV2 (TRF) 320 and emission filters: APC 665 and Europium 615).

Sequence of DLK (Q12852 1-520): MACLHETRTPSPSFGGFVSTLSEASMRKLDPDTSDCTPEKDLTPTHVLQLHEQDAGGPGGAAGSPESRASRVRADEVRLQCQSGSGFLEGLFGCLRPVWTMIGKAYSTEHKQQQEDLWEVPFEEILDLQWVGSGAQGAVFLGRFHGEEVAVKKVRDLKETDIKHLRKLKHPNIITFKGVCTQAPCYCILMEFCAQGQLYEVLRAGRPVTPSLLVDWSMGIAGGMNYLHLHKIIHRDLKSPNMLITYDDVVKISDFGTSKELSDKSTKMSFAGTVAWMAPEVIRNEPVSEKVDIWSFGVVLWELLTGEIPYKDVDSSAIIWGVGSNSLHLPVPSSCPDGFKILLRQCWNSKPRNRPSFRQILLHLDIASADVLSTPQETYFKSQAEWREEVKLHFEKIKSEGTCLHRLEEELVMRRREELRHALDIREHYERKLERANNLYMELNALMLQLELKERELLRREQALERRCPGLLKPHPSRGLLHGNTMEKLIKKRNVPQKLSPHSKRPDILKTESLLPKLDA

**Q.** For `CC(Oc1nc(-c2cnc(N)nc2)nc2c1nc1n2CCOC1(C)C)C1CC1` (centres unmarked) [Example 155], which Ki is on record?
**A.** The Ki was 1200 nM.

**Q.** How did the Ki turn out when `CCC1CCCN1c1nc(-c2cnc(N)nc2)nc2c1nc1n2CCOC1(C)C` (centres unmarked) [Example 24, 5-[1-(2-Ethyl-pyrrolidin-1-yl)-8,8-dimethyl-5,6-dihydro-8H-7-oxa-2,4,4b,9-tetraaza-fluoren-3-yl]-pyrimidin-2-ylamine] was run?
**A.** The Ki was 294 nM.

**Q.** For `CC1(C)OCCn2c1nc1c(NC3CC3)nc(-c3cnc(N)nc3)nc12` [Example 59, 2-(2-aminopyrimidin-5-yl)-N-cyclopropyl-6,6-dimethyl-8,9-dihydro-6H-[1,4]oxazino[4,3-e]purin-4-amine], which Ki is on record?
**A.** Its Ki is 192 nM.

**Q.** Which Ki does the source give for `CC1(C)OCCn2c1nc1c(N3CC4CC3C4)nc(-c3cnc(N)c(Cl)c3)nc12` [Example 35, 5-[1-(2-Aza-bicyclo[2.1.1]hex-2-yl)-8,8-dimethyl-5,6-dihydro-8H-7-oxa-2,4,4b,9-tetraaza-fluoren-3-yl]-3-chloro-pyridin-2-ylamine] here?
**A.** Its Ki is 235 nM.

**Q.** `COc1cc(-c2nc(N3CC4CC3C4)c3nc4n(c3n2)CCOC4(C)C)cnc1N` [Example 57] was tested. Which Ki did it give?
**A.** The Ki was 200 nM.

**Q.** `CC1(C)OCCCn2c1nc1c(N3CC4CC3C4)nc(-c3cnc(N)nc3)nc12` [Example 137, 5-(4-(2-azabicyclo[2.1.1]hexan-2-yl)-6,6-dimethyl-6,8,9,10-tetrahydro-[1,4]oxazepino[4,3-e]purin-2-yl)pyrimidin-2-amine] was tested. Which Ki did it give?
**A.** Its Ki is 177 nM.

**Q.** Which Ki does the source give for `CC1(C)OCCn2c1nc1c(N3CC(F)(F)C3)nc(-c3cnc(N)c(OCC4CC4)c3)nc12` [Example 70] here?
**A.** The Ki was 417 nM.

**Q.** For `Cc1c[nH]c2ncc(-c3nc(C4CC4)c4nc5n(c4n3)CCOC5(C)C)cc12` [Example 121], which Ki is on record?
**A.** The Ki was 5.48 nM.

**Q.** How did the Ki turn out when `CC(C)Oc1cc(-c2nc(N3CC(F)(F)C3)c3nc4n(c3n2)CCOC4(C)C)cnc1N` [Example 71] was run?
**A.** The Ki was 104 nM.

**Q.** For `CC1(C)OCCn2c1nc1c(N3CC4CC3C4)nc(-c3cnc4[nH]cnc4c3)nc12` [Example 146], which Ki is on record?
**A.** The Ki was 32.2 nM.

**Q.** Which Ki does the source give for `Cc1cc(-c2nc(N3CC4CC3C4)c3nc4n(c3n2)CCOC4(C)C)cnc1N` [Example 48, 5-(4-(2-azabicyclo[2.1.1]hexan-2-yl)-6,6-dimethyl-8,9-dihydro-6H-[1,4]oxazino[4,3-e]purin-2-yl)-3-methylpyridin-2-amine] here?
**A.** Its Ki is 992 nM.

**Q.** For `COC1CN(c2nc(-c3cnc4[nH]cc(C#N)c4c3)nc3c2nc2n3CCOC2(C)C)C1` [Example 41, 5-[1-(3-Methoxy-azetidin-1-yl)-8,8-dimethyl-5,6-dihydro-8H-7-oxa-2,4,4b,9-tetraaza-fluoren-3-yl]-1H-pyrrolo[2,3-b]pyridin-3-carbonitrile], which Ki is on record?
**A.** The Ki was 30.8 nM.

**Q.** Which Ki does the source give for `CC1(C)OCCn2c1nc1c(N3CC(F)C3)nc(-c3cnc4[nH]cc(C(F)(F)F)c4c3)nc12` [Example 45] here?
**A.** Its Ki is 9.87 nM.

**Q.** With `CC1(C)OCCn2c1nc1c(N3CC4CCC3C4)nc(-c3cnc4ccnn4c3)nc12` (centres unmarked) [Example 37, 1-(2-Aza-bicyclo[2.2.1]hept-2-yl)-8,8-dimethyl-3-pyrazolo[1,5-a]pyrimidin-6-yl-5,6-dihydro-8H-7-oxa-2,4,4b,9-tetraaza-fluorene] as the compound, how does the Ki read?
**A.** Its Ki is 663 nM.

**Q.** `CC1(C)OCCn2c1nc1c(N3CC4CCC3C4)nc(-c3cnc(N)nc3)nc12` (centres unmarked) [Example 33, 5-[1-(2-Aza-bicyclo[2.2.1]hept-2-yl)-8,8-dimethyl-5,6-dihydro-8H-7-oxa-2,4,4b,9-tetraaza-fluoren-3-yl]-pyrimidin-2-ylamine] was tested. Which Ki did it give?
**A.** The Ki was 90.3 nM.

**Q.** With `CC1(C)OCCn2c1nc1c(C3CC3)nc(-c3cnc(N)nc3)cc12` [Example 120] as the compound, how does the Ki read?
**A.** Its Ki is 359 nM.

**Q.** Which Ki does the source give for `CC1CCC(C)N1c1nc(-c2cnc(N)nc2)nc2c1nc1n2CCOC1(C)C` (centres unmarked) [Example 54, 5-[1-(2,5-Dimethyl-pyrrolidin-1-yl)-8,8-dimethyl-5,6-dihydro-8H-7-oxa-2,4,4b,9-tetraaza-fluoren-3-yl]-pyrimidin-2-ylamine] here?
**A.** The Ki was 284 nM.

**Q.** With `Nc1ncc(-c2nc(N3CC4CC3C4)c3nc4n(c3n2)CCCOC4)cn1` [Example 132, 5-(4-(2-azabicyclo[2.1.1]hexan-2-yl)-6,8,9,10-tetrahydro-[1,4]oxazepino[4,3-e]purin-2-yl)pyrimidin-2-amine] as the compound, how does the Ki read?
**A.** Its Ki is 281 nM.

**Q.** How did the Ki turn out when `Nc1ncc(-c2nc(C3CC3)c3nc4n(c3n2)CCOC42CCC2)cn1` [Example 115, 5-(4-cyclopropyl-8,9-dihydrospiro[[1,4]oxazino[4,3-e]purine-6,1′-cyclobutan]-2-yl)pyrimidin-2-amine] was run?
**A.** Its Ki is 226 nM.

**Q.** `Cn1cc(-c2nc(-c3cnc(N)nc3)nc3c2nc2n3CCOC2(C)C)cn1` [Example 113, 5-(6,6-dimethyl-4-(1-methyl-1H-pyrazol-4-yl)-8,9-dihydro-6H-[1,4]oxazino[4,3-e]purin-2-yl)pyrimidin-2-amine] was tested. Which Ki did it give?
**A.** The Ki was 521 nM.

**Q.** Which Ki does the source give for `CC1CCN(c2nc(-c3cnc(N)nc3)nc3c2nc2n3CCOC2(C)C)C1` (centres unmarked) [Example 27, 5-[8,8-Dimethyl-1-(3-methyl-pyrrolidin-1-yl)-5,6-dihydro-8H-7-oxa-2,4,4b,9-tetraaza-fluoren-3-yl]-pyrimidin-2-ylamine] here?
**A.** The Ki was 299 nM.

**Q.** How did the Ki turn out when `CCOc1cc(-c2nc(N3CC(F)(F)C3)c3nc4n(c3n2)CCOC4(C)C)cnc1N` [Example 69] was run?
**A.** Its Ki is 289 nM.

**Q.** How did the Ki turn out when `Cc1c[nH]c2ncc(-c3nc(N4CC(F)(F)C4)c4nc5n(c4n3)CCOC5(C)C)cc12` [Example 66] was run?
**A.** Its Ki is 11.9 nM.

**Q.** `CC[C@@]1(C)OCCn2c1nc1c(N3CC4CC3C4)nc(-c3cnc(N)nc3)nc12` (single isomer, unassigned) [Example 93] was tested. Which Ki did it give?
**A.** Its Ki is 131 nM.

**Q.** With `CC1(C)OCCCn2c1nc1c(N3CCCC3)nc(-c3cnc(N)nc3)nc12` [Example 134, 5-(6,6-dimethyl-4-(pyrrolidin-1-yl)-6,8,9,10-tetrahydro-[1,4]oxazepino[4,3-e]purin-2-yl)pyrimidin-2-amine] as the compound, how does the Ki read?
**A.** The Ki was 210 nM.

**Q.** With `CC1(C)OCCn2c1nc1c(N3CCC(F)(F)C3)nc(-c3cnc(N)nc3)nc12` [Example 76] as the compound, how does the Ki read?
**A.** Its Ki is 97.6 nM.

**Q.** `CNc1ncc(-c2nc(N3CC4CC3C4)c3nc4n(c3n2)CCOC4(C)C)cn1` [Example 47] was tested. Which Ki did it give?
**A.** The Ki was 1300 nM.

**Q.** How did the Ki turn out when `C[C@@H]1OCCn2c1nc1c(N3CC4CC3C4)nc(-c3cnc(N)nc3)nc12` (single isomer, unassigned) [Example 107] was run?
**A.** Its Ki is 59.7 nM.

**Q.** For `CC1(C)OCCn2c1nc1c(N3CCC(F)(F)C3)nc(-c3cnc(N)c(OCC4CC4)c3)nc12` [Example 77], which Ki is on record?
**A.** Its Ki is 588 nM.

**Q.** For `CC1(C)OCCn2c1nc1c(N3C4CCC3CC4)nc(-c3cnc(N)nc3)nc12` [Example 56, 5-(4-(7-azabicyclo[2.2.1]heptan-7-yl)-6,6-dimethyl-8,9-dihydro-6H-[1,4]oxazino[4,3-e]purin-2-yl)pyrimidin-2-amine], which Ki is on record?
**A.** The Ki was 339 nM.

**Q.** How did the Ki turn out when `Cc1c[nH]c2ncc(-c3nc(N4CC5CC4C5)c4nc5n(c4n3)CCOC5(C)C)cc12` [Example 3, 1-(2-Aza-bicyclo[2.2.1]hex-2-yl)-8,8-dimethyl-3-(3-methyl-1H-pyrrolo[2,3-b]pyridin-5-yl)-5,6-dihydro-8H-7-oxa-2,4,4b,9-tetraaza-fluorene] was run?
**A.** The Ki was 4.92 nM.

**Q.** Which Ki does the source give for `CC(C)Oc1nc(-c2cnc(N)nc2)nc2c1nc1n2CCOC1(C)C` [Example 85] here?
**A.** Its Ki is 571 nM.

**Q.** How did the Ki turn out when `COc1cc(-c2nc(N3CCC(F)(F)C3)c3nc4n(c3n2)CCOC4(C)C)cnc1N` [Example 73, 5-(4-(3,3-difluoropyrrolidin-1-yl)-6,6-dimethyl-8,9-dihydro-6H-[1,4]oxazino[4,3-e]purin-2-yl)-3-methoxypyridin-2-amine] was run?
**A.** The Ki was 297 nM.

**Q.** For `C[C@@H]1COC(C)(C)c2nc3c(C4CC4)nc(-c4cnc(N)nc4)nc3n21` (single isomer, unassigned) [Example 101], which Ki is on record?
**A.** The Ki was 102 nM.

**Q.** How did the Ki turn out when `CC1(C)OCCn2c1nc1c(OC3CCC3)nc(-c3cnc(N)nc3)nc12` [Example 88] was run?
**A.** The Ki was 330 nM.

**Q.** For `CN(C)c1nc(-c2cnc3[nH]cc(C(F)(F)F)c3c2)nc2c1nc1n2CCCOC1` [Example 129, N,N-dimethyl-2-(3-(trifluoromethyl)-1H-pyrrolo[2,3-b]pyridin-5-yl)-6,8,9,10-tetrahydro-[1,4]oxazepino[4,3-e]purin-4-amine], which Ki is on record?
**A.** Its Ki is 1.64 nM.

**Q.** Which Ki does the source give for `CC1(C)OCCn2c1nc1c(N3CC4CC3C4)nc(-c3cnc(N)c(C4CC4)c3)nc12` [Example 44, 5-[1-(2-Aza-bicyclo[2.1.1]hex-2-yl)-8,8-dimethyl-5,6-dihydro-8H-7-oxa-2,4,4b,9-tetraaza-fluoren-3-yl]-3-cyclopropyl-pyridin-2-ylamine] here?
**A.** The Ki was 621 nM.

**Q.** `C[C@H]1CCCN1c1nc(-c2cnc(N)nc2)nc2c1nc1n2CCOC1(C)C` [Example 53, 5-[8,8-Dimethyl-1-((S)-2-methyl-pyrrolidin-1-yl)-5,6-dihydro-8H-7-oxa-2,4,4b,9-tetraaza-fluoren-3-yl]-pyrimidin-2-ylamine] was tested. Which Ki did it give?
**A.** The Ki was 479 nM.

**Q.** With `CC1(C)OCCn2c1nc1c(N3CC4CC3C4)nc(-c3cnc(N)nc3)cc12` [Example 116, 5-(9-(2-azabicyclo[2.1.1]hexan-2-yl)-1,1-dimethyl-3,4-dihydro-1H-pyrido[3′,4′:4,5]imidazo[2,1-c][1,4]oxazin-7-yl)pyrimidin-2-amine] as the compound, how does the Ki read?
**A.** The Ki was 21.3 nM.

**Q.** `CC1(C)OCCn2c1nc1c(N3CC4(COC4)C3)nc(-c3cnc(N)nc3)nc12` [Example 50, 5-[8,8-Dimethyl-1-(2-oxa-6-aza-spiro[3.3]hept-6-yl)-5,6-dihydro-8H-7-oxa-2,4,4b,9-tetraaza-fluoren-3-yl]-pyrimidin-2-ylamine] was tested. Which Ki did it give?
**A.** Its Ki is 490 nM.

**Q.** How did the Ki turn out when `CC1(C)OCCn2c1nc1c(N3CC(C#N)C3)nc(-c3cnc4[nH]cc(Cl)c4c3)nc12` [Example 110, 1-(2-(3-chloro-1H-pyrrolo[2,3-b]pyridin-5-yl)-6,6-dimethyl-8,9-dihydro-6H-[1,4]oxazino[4,3-e]purin-4-yl)azetidine-3-carbonitrile] was run?
**A.** The Ki was 1.25 nM.
